Data reported in paper PMC8948214, “Transport efficiency of AtGTR1 dependents on the hydrophobicity of transported glucosinolates” (Scientific Reports, 2022).

B1: AtGTR1 (Arabidopsis thaliana) (protein)
chain: MERKPLEVEPSTTTTNTDVVDSFEEEQRKIVYRGWKVMPFIIGNETFEKLGIIGTLSNLLVYLTSVFNLKSYTAATIINAFSGTINFGTFIAAFLCDTYFGRYKTLSVAVIACFLGSFVILLTAAIPSLHPVACGNKISCEGPSVGQILFLLMGLGFLVVGAGGIRPCNLAFGADQFNPKSESGKKGINSFFNWYFFTFTFAQIISLTAVVYIQSNVSWTIGLIIPVALMFLACVIFFAGDRLYVKVKASGSPLAGIARVIAAAIKKRGLKPVKQPWVNLYNHIPSNYANTTLKYTDQFRFLDKAAIMTPEEKLNSDGTASDPWKLCTLQQVEEVKCIVRVIPIWFASTIYYLAITIQMTYPVFQALQSDRRLGSGGFRIPAATYVVFLMTGMTVFIIFYDRVLVPSLRRVTGLETGISLLQRIGAGFTFAIMSLLVSGFIEERRRNFALTKPTLGMAPRTGEISSMSALWLIPQLTLAGIAEAFAAIGQMEFYYKQFPENMKSFAGSIFYVGAGVSSYLASFLISTVHRTTAHSPSGNWLAEDLNKAKLDYFYFMLTGLMVVNMAYFLLMARWYRYKGGNDEDITEIETNEEETKQQQLQDKNSV
notes: full-length synthesized cDNA with C-terminal 8-His-tag in pESC-URA; expressed in S. cerevisiae FGY217; theoretical 68 kDa; homodimer after purification

Assays:
AtGTR1 = target: T1, AtGTR1 (Arabidopsis thaliana, UniProt Q944G5); test: inhibition of glucotropaeolin uptake in yeast, RP-HPLC; assay type: cell-based
T1 construct: gene NPF2.10; full-length synthesized cDNA with C-terminal 8-His-tag in pESC-URA; expressed in S. cerevisiae FGY217; theoretical 68 kDa; homodimer after purification
T1 sequence (Q944G5 31-636): B1 chain

[1] = substrate: O=S(=O)(O)O/N=C(/Cc1c[nH]c2ccccc12)S[C@@H]1O[C@H](CO)[C@@H](O)[C@H](O)[C@H]1O; test: yeast uptake assay, RP-HPLC of desulfo-glucosinolate; assay type: cell-based, Arabidopsis thaliana; conditions: 15 min uptake, 2.5-320 μM substrate, pH 5.5, 30 °C, proton-coupled, apparent
[2] = substrate: O=S(=O)(O)O/N=C(\Cc1ccccc1)S[C@@H]1O[C@H](CO)[C@@H](O)[C@H](O)[C@H]1O; test: as above; assay type: cell-based, Arabidopsis thaliana; conditions: 15 min uptake, 2.5-320 μM substrate, pH 5.5, 30 °C, proton-coupled, apparent

Molecule	IC50 (AtGTR1)	Km [1]	Km [2]
O=C(O)Cc1c[nH]c2ccccc12 [IAA, 3-indoleacetic acid]	762 ± 48.1 µM		
O=C(O)c1ccccc1O [SA, salicylic acid]	630 ± 47.5 µM		
CC/C=C\C[C@H]1C(=O)CC[C@@H]1CC(=O)O [JA, jasmonic acid]	938 ± 114 µM		
B1		8.2 ± 0.60 µM	13.6 ± 1.55 µM
